According to patent US8759338B2, “Heterocyclic kinase inhibitors” (Novartis AG, priority 2008, dated 2014):

What was measured:
[1] = target: PIM3 (Homo sapiens (Human), UniProt Q86V86); experiment: Pim3 ATP depletion assay; type: biochemical; conditions: 40 μM ATP, 100 μM BAD peptide
Procedure: The activity of PIM3 is measured using a luciferase-luciferin based ATP detection reagent to quantify ATP depletion resulting from kinase-catalyzed phosphoryl transfer to a peptide substrate. Compounds to be tested are dissolved in 100% DMSO and directly distributed into white 384-well plates at 0.5 μA per well. To start the reaction, 10 μl of 10 nM Pim3 kinase and 200 μM BAD peptide (RSRHSSYPAGT-OH) in assay buffer (50 mM HEPES pH 7.5, 5 mM MgCl2, 1 mM DTT, 0.05% BSA) is added into each well. After 15 minutes, 10 μl of 80 μM ATP in assay buffer is added. Final assay concentrations are 5 nM PIM1, 40 μM ATP, 100 μM BAD peptide and 2.5% DMSO. The reaction is performed until approximately 50% of the ATP is depleted, then stopped by the addition of 20 μl KinaseGlo Plus (Promega Corporation) solution. The stopped reaction is incubated for 10 minutes and the remaining ATP detected via luminescence on the Victor2 (Perkin Elmer).

[2] = target: PIM2 (Homo sapiens (Human), UniProt Q9P1W9); experiment: Pim2 ATP depletion assay; type: biochemical; conditions: 4 μM ATP, 10 μM BAD peptide
Procedure: The activity of PIM2 is measured using a luciferase-luciferin based ATP detection reagent to quantify ATP depletion resulting from kinase-catalyzed phosphoryl transfer to a peptide substrate. Compounds to be tested are dissolved in 100% DMSO and directly distributed into white 384-well plates at 0.5 μl per well. To start the reaction, 10 μl of 10 nM Pim2 kinase and 20 μM BAD peptide (RSRHSSYPAGT-OH) in assay buffer (50 mM HEPES pH 7.5, 5 mM MgCl2, 1 mM DTT, 0.05% BSA) is added into each well. After 15 minutes, 10 μl of 8 μM ATP in assay buffer is added. Final assay concentrations are 5 nM PIM2, 4 μM ATP, 10 μM BAD peptide and 2.5% DMSO. The reaction is performed until approximately 50% of the ATP is depleted, then stopped with the addition of 20 μl KinaseGlo Plus (Promega Corporation) solution. The stopped reaction is incubated for 10 minutes and the remaining ATP detected via luminescence on the Victor2 (Perkin Elmer).

[3] = target: PIM1 (Homo sapiens (Human), UniProt P11309); experiment: Pim1 ATP depletion assay; type: biochemical; conditions: 20 μM ATP, 40 μM BAD peptide
Procedure: The activity of PIM1 is measured using a luciferase-luciferin based ATP detection reagent to quantify ATP depletion resulting from kinase-catalyzed phosphoryl transfer to a peptide substrate. Compounds to be tested are dissolved in 100% DMSO and directly distributed into white 384-well plates at 0.5 μA per well. To start the reaction, 10 μl of 5 nM Pim1 kinase and 80 μM BAD peptide (RSRHSSYPAGT-OH) in assay buffer (50 mM HEPES pH 7.5, 5 mM MgCl2, 1 mM DTT, 0.05% BSA) is added into each well. After 15 minutes, 10 μl of 40 μM ATP in assay buffer is added. Final assay concentrations are 2.5 nM PIM1, 20 μM ATP, 40 μM BAD peptide and 2.5% DMSO. The reaction is performed until approximately 50% of the ATP is depleted, then stopped with the addition of 20 μl KinaseGlo Plus (Promega Corporation) solution. The stopped reaction is incubated for 10 minutes and the remaining ATP detected via luminescence on the Victor2 (Perkin Elmer). […] IC50, the half maximal inhibitory concentration, represents the concentration of a test compound that is required for 50% inhibition of its target in vitro.

[4] = system: KMS11 cells; experiment: Cell proliferation assay; type: cell-based; conditions: KMS-11, 72 h; KMS11 human myeloma cell line, 3 days, CellTiter-Glo
Procedure: KMS11 (human myeloma cell line), were cultured in IMDM supplemented with 10% FBS, sodium pyruvate and antibiotics. Cells were plated in the same medium at a density of 2000 cells per well into 96 well tissue culture plates, with outside wells vacant, on the day of assay. MM1.s (human myeloma cell line), were cultured in RPMI1640 supplemented with 10% FBS, sodium pyruvate and antibiotics. Cells were plated in the same medium at a density of 5000 cells per well into 96 well tissue culture plates, with outside wells vacant, on the day of assay.
Test compounds supplied in DMSO were diluted into DMSO at 500 times the desired final concentrations before dilution into culture media to 2 times final concentrations. Equal volumes of 2× compounds were added to the cells in 96 well plates and incubated at 37° C. for 3 days.
After 3 days plates were equilibrated to room temperature and equal volume of CellTiter-Glow Reagent (Promega) was added to the culture wells. The plates were agitated briefly and luminescent signal was measured with luminometer. The percent inhibition of the signal seen in cells treated with DMSO alone vs. cells treated with control compound was calculated and used to determine EC50 values (i.e., the concentration of a test compound that is required to obtain 50% of the maximum effect in the cells) for tested compounds, as shown in Example 24.

Sequence of PIM2 (Q9P1W9 whole entry, species assumed): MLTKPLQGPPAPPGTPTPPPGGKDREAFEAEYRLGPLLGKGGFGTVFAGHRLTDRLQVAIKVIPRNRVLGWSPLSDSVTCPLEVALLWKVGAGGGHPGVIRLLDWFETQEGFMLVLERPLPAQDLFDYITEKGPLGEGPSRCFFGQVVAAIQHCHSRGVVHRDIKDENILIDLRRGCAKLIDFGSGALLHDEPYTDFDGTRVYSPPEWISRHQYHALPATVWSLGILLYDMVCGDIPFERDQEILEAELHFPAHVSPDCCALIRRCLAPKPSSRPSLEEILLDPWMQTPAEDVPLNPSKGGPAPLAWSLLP
Sequence of PIM1 (P11309 whole entry, species assumed): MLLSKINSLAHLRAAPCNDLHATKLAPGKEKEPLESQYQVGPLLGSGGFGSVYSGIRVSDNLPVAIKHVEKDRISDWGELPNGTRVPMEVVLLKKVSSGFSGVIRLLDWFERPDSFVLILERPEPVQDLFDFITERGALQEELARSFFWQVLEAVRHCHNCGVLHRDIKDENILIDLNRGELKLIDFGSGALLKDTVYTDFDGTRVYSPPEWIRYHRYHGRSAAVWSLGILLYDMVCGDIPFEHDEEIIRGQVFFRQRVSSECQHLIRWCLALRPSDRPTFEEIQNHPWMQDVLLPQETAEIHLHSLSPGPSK

| IC50 [1] | IC50 [2] | IC50 [3] | SMILES | EC50 [4] |
| --- | --- | --- | --- | --- |
| 0.212 µM | 3.6 µM | 2.1 µM | N[C@@H]1CCCN(c2ccncc2Nc2cccc3cnc(-c4c(F)cccc4F)nc23)C1 [Example 7, (R)-N-(4-(3-aminopiperidin-1-yl)pyridin-3-yl)-2-(2,6-difluorophenyl)quinazolin-8-amine] | – |
| 0.17 µM | 0.498 µM | 0.465 µM | N[C@@H]1CN(c2ccncc2Nc2cccc3cnc(-c4c(F)cccc4F)nc23)CC[C@H]1F [Example 9, N-(4-((3R,4R)-3-amino-4-fluoropiperidin-1-yl)pyridin-3-yl)-2-(2,6-difluorophenyl)quinazolin-8-amine] | – |
| 0.468 µM | > 25 µM | 2.9 µM | NC1CCCCN(c2ccncc2Nc2cccc3cnc(-c4c(F)cccc4F)nc23)C1 (centres unmarked) [Example 11, N-(4-(3-aminoazepan-1-yl)pyridin-3-yl)-2-(2,6-difluorophenyl)quinazolin-8-amine] | – |
| 0.502 µM | > 25 µM | 4.7 µM | N[C@H]1CN(c2ccncc2Nc2cccc3cnc(-c4c(F)cccc4F)nc23)CC[C@@H]1F [Example 10, N-(4-((3S,4S)-3-amino-4-fluoropiperidin-1-yl)pyridin-3-yl)-2-(2,6-difluorophenyl)quinazolin-8-amine] | – |
| 0.067 µM | 0.23 µM | 0.184 µM | N[C@@H]1CN(c2ccncc2Nc2cccc3cnc(-c4c(F)cccc4F)nc23)CC[C@H]1O [Example 3, (3R,4R)-3-amino-1-(3-(2-(2,6-difluorophenyl)-quinazolin-8-ylamino)-pyridin-4-yl)piperidin-4-ol] | – |
| 0.016 µM | 0.031 µM | 0.021 µM | N[C@H]1CCCN(c2ccncc2Nc2cccc3cnc(-c4c(F)cccc4F)nc23)C1 [Example 17, (S)-N-(4-(3-aminopiperidin-1-yl)pyridin-3-yl)-2-(2,6-difluorophenyl)quinazolin-8-amine] | – |

Further lines, the compound ahead of its results:

| SMILES | IC50 [1] | IC50 [2] | IC50 [3] | EC50 [4] |
| --- | --- | --- | --- | --- |
| CCO[C@@H]1C[C@H](N)CN(c2ccncc2Nc2cccc3cnc(-c4c(F)cccc4F)nc23)C1 [Example 6, N-(4-((3S,5R)-3-amino-5-ethoxypiperidin-1-yl)pyridin-3-yl)-2-(2,6-difluorophenyl)quinazolin-8-amine] | 2.1 µM | 0.46 µM | 1.7 µM | – |
| NC1CC(N)CN(c2ccncc2Nc2cccc3cnc(-c4c(F)cccc4F)nc23)C1 (centres unmarked) [Example 8, 1-(3-(2-(2,6-difluorophenyl)quinazolin-8-ylamino)pyridin-4-yl)piperidine-3,5-diamine] | 0.246 µM | 2.5 µM | 2.3 µM | – |
| N[C@@H]1CN(c2ccncc2Nc2cccc3cnc(-c4c(F)cccc4F)nc23)CC[C@@H]1O [Example 2, (3R,4S)-3-amino-1-(3-(2-(2,6-difluorophenyl)-quinazolin-8-ylamino)-pyridin-4-yl)piperidin-4-ol] | 0.018 µM | 0.09 µM | 0.039 µM | – |
| N[C@H]1CCCN(c2ncncc2Nc2cccc3cnc(-c4c(F)cccc4F)nc23)C1 [Example 12, (S)-N-(4-(3-aminopiperidin-1-yl)pyrimidin-5-yl)-2-(2,6-difluorophenyl)quinazolin-8-amine] | 3.9 µM | > 25 µM | 5.4 µM | – |
| C[C@@H]1C[C@H](N)CN(c2ccncc2Nc2cccc3cnc(-c4c(F)cccc4F)nc23)C1 [Example 15, N-(4-((3S,5R)-3-amino-5-methylpiperidin-1-yl)pyridin-3-yl)-2-(2,6-difluorophenyl)quinazolin-8-amine] | 0.019 µM | 0.009 µM | 0.018 µM | 2.6 µM |
| N[C@H]1CCCN(c2ccncc2Nc2cccc3cnc(-c4nccs4)nc23)C1 [Example 16, (S)-N-(4-(3-aminopiperidin-1-yl)pyridin-3-yl)-2-(thiazol-2-yl)quinazolin-8-amine] | 0.149 µM | 1.9 µM | 0.411 µM | – |
| N[C@H]1C[C@@H](CF)CN(c2ccncc2Nc2cccc3cnc(-c4c(F)cccc4F)nc23)C1 [Example 13, N-(4-((3S,5R)-3-amino-5-(fluoromethyl)piperidin-1-yl)pyridin-3-yl)-2-(2,6-difluorophenyl)quinazolin-8-amine] | 0.049 µM | 0.02 µM | 0.053 µM | 7.3 µM |
| NC1C=C(c2ccncc2Nc2cccc3cnc(-c4c(F)cccc4F)nc23)CCC1 (centres unmarked) [Example 1, N-(4-(3-aminocyclohex-1-enyl)pyridin-3-yl)-2-(2,6-difluorophenyl)quinazolin-8-amine] | 0.078 µM | 0.392 µM | 0.152 µM | – |
| C[C@H]1C[C@@H](N)CN(c2ccncc2Nc2cccc3cnc(-c4c(F)cccc4F)nc23)C1 [Example 14, N-(4-((3R,5S)-3-amino-5-methylpiperidin-1-yl)pyridin-3-yl)-2-(2,6-difluorophenyl)quinazolin-8-amine] | 0.18 µM | 0.852 µM | 0.882 µM | – |
| N[C@H]1CCCN(c2ccncc2Nc2cccc3cnc(-c4ccccc4F)nc23)C1 [Example 18, (S)-N-(4-(3-aminopiperidin-1-yl)pyridin-3-yl)-2-(2-fluorophenyl)quinazolin-8-amine] | 0.018 µM | 0.131 µM | 0.029 µM | – |
| N[C@H]1CCCN(c2ccncc2Nc2cccc3cnc(-c4cccc(-c5nccs5)c4)nc23)C1 [Example 19, (S)-N-(4-(3-aminopiperidin-1-yl)pyridin-3-yl)-2-(3-(thiazol-2-yl)phenyl)quinazolin-8-amine] | 0.095 µM | 2 µM | 0.056 µM | – |
